Test results: patent US20240261398A1 (priority 2018, published 2024)
Where a name gives a salt, the structure may show the parent alone. Read-outs that look alike come from different tables or passages of the source.

Experiments:
[1] = system: A/California/07/2009 virus (H1N1; CA07); design: species or system BALB/c mice; details: mouse, in vivo
[2] = system: A/California/07/2009 virus (H1N1; CA07); design: species or system BALB/c mice; details: mouse, in vivo; remark: listed apart in the source
influenza virus = format: in vivo, mice
Ebola GP protein = format: in vivo, BALB/c mice; details: for Mean value of antibody titers, Vaccine + compound: Ebola VLP 1 μg/dose + compound, i.m. twice, serum two weeks after second immunization, mean of 4 mice; for Antibody titer ratio (a): [VLP + candidate compound]/[VLP + AddaVax]; for Mean value of antibody titers, Only compound (c): compound alone, mice treated as in the influenza adjuvant screening

## CCN(Cc1cccc(S(=O)(=O)[O-])c1)c1ccc(C(=C2C=CC(=[N+](CC)Cc3cccc(S(=O)(=O)[O-])c3)C=C2)c2ccccc2S(=O)(=O)[O-])cc1.[Na+].[Na+]
[1]
  Antibody titers in primary screening, Vaccine + compound: 1333.33
  Relative ratio of antibody titer to alum (compound/alum), primary screening: 0.69
[2]
  Antibody titers in secondary screening, Vaccine + compound: 990
  Relative ratio of antibody titer to alum (compound/alum), secondary screening: 1.65

## O.O=P([O-])([O-])OCC(O)CO.[Ca+2] (centres unmarked)
[1]
  Antibody titers in primary screening, Vaccine + compound: 1920.00
  Relative ratio of antibody titer to alum (compound/alum), primary screening: 1.71
[2]
  Antibody titers in secondary screening, Vaccine + compound: 4800
  Relative ratio of antibody titer to alum (compound/alum), secondary screening: 3.33
Influenza virus; mouse, in vivo
  Antibody titers (IgG): 261.25

## CCN(Cc1cccc(S(=O)(=O)[O-])c1)c1ccc(C(=C2C=CC(=[N+](CC)Cc3cccc(S(=O)(=O)[O-])c3)C=C2)c2ccc(O)cc2S(=O)(=O)[O-])cc1.[Na+].[Na+]
[1]
  Antibody titers in primary screening, Vaccine + compound: 2133.33
  Relative ratio of antibody titer to alum (compound/alum), primary screening: 1.00
[2]
  Antibody titers in secondary screening, Vaccine + compound: 440
  Relative ratio of antibody titer to alum (compound/alum), secondary screening: 0.73

## CC1(C)[C@@H](O[C@H]2O[C@H](C(=O)O)[C@@H](O)[C@H](O)[C@H]2O[C@@H]2O[C@H](C(=O)O)[C@@H](O)[C@H](O)[C@H]2O)CC[C@]2(C)[C@H]3C(=O)C=C4[C@@H]5C[C@@](C)(C(=O)O)CC[C@]5(C)CC[C@@]4(C)[C@]3(C)CC[C@@H]12
[1]
  Antibody titers in primary screening, Vaccine + compound: 5973.33
[2]
  Antibody titers in secondary screening, Vaccine + compound: 2560

## O=C([O-])[C@H](O)[C@@H](O)[C@H](O)[C@H](O)CO.O=C([O-])[C@H](O)[C@@H](O)[C@H](O)[C@H](O)CO.[Fe+2]
[1]
  Antibody titers in primary screening, Vaccine + compound: 853.33
  Relative ratio of antibody titer to alum (compound/alum), primary screening: 0.76
[2]
  Antibody titers in secondary screening, Vaccine + compound: 3040
  Relative ratio of antibody titer to alum (compound/alum), secondary screening: 1.90

## O=C([O-])[C@H](O)[C@@H](O)[C@H](O)[C@H](O)CO.[Na+]
[2]
  Mean value of antibody titers, Only compound: <10
  Mean value of antibody titers, Vaccine + compound: 1600.00
  Relative ratio of antibody titer to alum (Compound/alum): 1.00

## O=S([O-])O.[Na+]
[2]
  Mean value of antibody titers, Only compound: <10
  Mean value of antibody titers, Vaccine + compound: 730.00
  Relative ratio of antibody titer to alum (Compound/alum): 0.55

## CC(C)=CCC[C@@H](C)CC=O
[1]
  Antibody titers in primary screening, Vaccine + compound: 333.33
[2]
  Antibody titers in secondary screening, Vaccine + compound: 35

## CC(C)=CCCC(C)CCO (racemic) [(+/−)-Citronellol]
[1]
  Antibody titers in primary screening, Vaccine + compound: 960.00
[2]
  Antibody titers in secondary screening, Vaccine + compound: 260

## CC(/C=C/C=C(C)/C=C/C(=O)O)=C\C=C\C=C(C)\C=C\C=C(C)\C=C\C(=O)O (stereo in doubt) [Norbixin]
[1]
  Antibody titers in primary screening, Vaccine + compound: 7680.00
  Relative ratio of antibody titer to alum (compound/alum), primary screening: 8.00
[2]
  Relative ratio of antibody titer to alum (compound/alum), secondary screening: 5.14
  virus-specific antibody titers compared with the alum adjuvant: equal to or higher than the alum adjuvant did
Influenza virus; mouse, in vivo
  Antibody titers (IgG): 340

## CC(C)C1=CC2=CC[C@@H]3[C@](C)(CCC[C@@]3(C)C(=O)O)[C@H]2CC1 [Abietic acid]
[1]
  Antibody titers in primary screening, Vaccine + compound: 533.33
[2]
  Antibody titers in secondary screening, Vaccine + compound: 1280

## Cc1c(C(=O)O)c(O)cc2c1C(=O)c1c(O)c([C@@H]3O[C@H](CO)[C@@H](O)[C@H](O)[C@H]3O)c(O)c(O)c1C2=O [Carminic acid]
[1]
  Antibody titers in primary screening, Vaccine + compound: 746.67
[2]
  Antibody titers in secondary screening, Vaccine + compound: 960

## CC(/C=C/C=C(\C)C(=O)O[C@@H]1O[C@H](CO[C@@H]2O[C@H](CO)[C@@H](O)[C@H](O)[C@H]2O)[C@@H](O)[C@H](O)[C@H]1O)=C\C=C\C=C(C)\C=C\C=C(/C)C(=O)O[C@@H]1O[C@H](CO[C@@H]2O[C@H](CO)[C@@H](O)[C@H](O)[C@H]2O)[C@@H](O)[C@H](O)[C@H]1O [Crocin]
[1]
  Antibody titers in primary screening, Vaccine + compound: 1066.67
[2]
  Antibody titers in secondary screening, Vaccine + compound: 480

## CCO [Ethanol]
[2]
  Mean value of antibody titers, Only compound: <10
  Mean value of antibody titers, Vaccine + compound: 400.00
  Relative ratio of antibody titer to alum (Compound/alum): 0.56
Ebola GP protein
  Mean value of antibody titers, Vaccine + compound: 140.00
  Antibody titer ratio (a): 0.23
  Mean value of antibody titers, Only compound (c): <10

## CC(C)=CCC/C(C)=C/COC=O [Geranyl Formate]
[1]
  Antibody titers in primary screening, Vaccine + compound: 2560.00
[2]
  Antibody titers in secondary screening, Vaccine + compound: 960

## COc1ccc([C@@H]2CC(=O)c3c(O)cc(O[C@@H]4O[C@H](CO[C@@H]5O[C@@H](C)[C@H](O)[C@@H](O)[C@H]5O)[C@@H](O)[C@H](O)[C@H]4O)cc3O2)cc1O [Hesperidin]
[1]
  Antibody titers in primary screening, Vaccine + compound: 3840.00
  Relative ratio of antibody titer to alum (compound/alum), primary screening: 1.13
[2]
  Antibody titers in secondary screening, Vaccine + compound: 2240
  Relative ratio of antibody titer to alum (compound/alum), secondary screening: 4.00

## CC(CC=O)CCCC(C)(C)O (centres unmarked) [Hydroxycitronellal]
[1]
  Antibody titers in primary screening, Vaccine + compound: 2773.33
[2]
  Antibody titers in secondary screening, Vaccine + compound: 1280

## O=C1/C(=C2\Nc3ccc(S(=O)(=O)[O-])cc3C2=O)Nc2ccc(S(=O)(=O)[O-])cc21.[Na+].[Na+] [Indigo Carmine]
[1]
  Antibody titers in primary screening, Vaccine + compound: 1280.00
  Relative ratio of antibody titer to alum (compound/alum), primary screening: 1.50
[2]
  Antibody titers in secondary screening, Vaccine + compound: 485
  Relative ratio of antibody titer to alum (compound/alum), secondary screening: 0.81

## CC=Cc1ccc(O)c(OC)c1 [Isoeugenol]
[1]
  Antibody titers in primary screening, Vaccine + compound: 2986.67
[2]
  Antibody titers in secondary screening, Vaccine + compound: 140

## c1ccc2cnccc2c1 [Isoquinoline]
[1]
  Antibody titers in primary screening, Vaccine + compound: 1493.33
[2]
  Antibody titers in secondary screening, Vaccine + compound: 1200

## COC(=O)c1ccccc1N [Methyl Anthranilate]
[1]
  Antibody titers in primary screening, Vaccine + compound: 693.33
[2]
  Antibody titers in secondary screening, Vaccine + compound: 2240

## C[C@@H]1O[C@@H](O[C@H]2[C@H](Oc3cc(O)c4c(c3)O[C@H](c3ccc(O)cc3)CC4=O)O[C@H](CO)[C@@H](O)[C@@H]2O)[C@H](O)[C@H](O)[C@H]1O [Naringin]
[1]
  Antibody titers in primary screening, Vaccine + compound: 2133.33
[2]
  Antibody titers in secondary screening, Vaccine + compound: 2240

## COC(=O)[C@H](Cc1ccccc1)NC(=O)[C@H](CC(=O)O)NCCC(C)(C)C [Neotame]
[1]
  Antibody titers in primary screening, Vaccine + compound: 2560.00
  Relative ratio of antibody titer to alum (compound/alum), primary screening: 2.00
[2]
  Antibody titers in secondary screening, Vaccine + compound: 720
  Relative ratio of antibody titer to alum (compound/alum), secondary screening: 1.00
  virus-specific antibody titers compared with the alum adjuvant: equal to or higher than the alum adjuvant did

## [Cl-].[K+] [Potassium chloride]
[2]
  Mean value of antibody titers, Only compound: <10
  Mean value of antibody titers, Vaccine + compound: 2920.00
  Relative ratio of antibody titer to alum (Compound/alum): 1.83

## Cc1cc2nc3c(=O)[nH]c(=O)nc-3n(C[C@H](O)[C@H](O)[C@H](O)CO)c2cc1C [Riboflavin]
[1]
  Antibody titers in primary screening, Vaccine + compound: 2560.00
[2]
  Antibody titers in secondary screening, Vaccine + compound: 2240
Influenza virus; nasal immunization with vaccine + compound, 100 μg/dose (saponin 10 μg/dose), Day 0, 14, 28
  Antibody titers (IgG): 880

## C[C@@H]1O[C@@H](OC[C@H]2O[C@@H](Oc3c(-c4ccc(O)c(O)c4)oc4cc(O)cc(O)c4c3=O)[C@H](O)[C@@H](O)[C@@H]2O)[C@H](O)[C@H](O)[C@H]1O [Rutin]
[1]
  Antibody titers in primary screening, Vaccine + compound: 2560.00
[2]
  Antibody titers in secondary screening, Vaccine + compound: 1320

## CC(=O)[O-].[Na+] [Sodium acetate]
[2]
  Mean value of antibody titers, Only compound: <10
  Mean value of antibody titers, Vaccine + compound: 740.00
  Relative ratio of antibody titer to alum (Compound/alum): 0.66

## O=C([O-])c1ccccc1.[Na+] [Sodium benzoate]
[2]
  Mean value of antibody titers, Only compound: <10
  Mean value of antibody titers, Vaccine + compound: 1600.00
  Relative ratio of antibody titer to alum (Compound/alum): 1.21
  virus-specific antibody titers compared with the alum adjuvant: equal to or higher than the alum adjuvant did

## [Br-].[Na+] [Sodium bromide]
[2]
  Mean value of antibody titers, Only compound: <10
  Mean value of antibody titers, Vaccine + compound: 970.00
  Relative ratio of antibody titer to alum (Compound/alum): 0.87

## O=S([O-])[O-].[Na+].[Na+] [Sodium sulfite]
[2]
  Mean value of antibody titers, Only compound: <10
  Mean value of antibody titers, Vaccine + compound: 2080.00
  Relative ratio of antibody titer to alum (Compound/alum): 1.30
  virus-specific antibody titers compared with the alum adjuvant: equal to or higher than the alum adjuvant did

## O=S([O-])([O-])=S.[Na+].[Na+] [Sodium thiosulfate]
[2]
  Mean value of antibody titers, Only compound: <10
  Mean value of antibody titers, Vaccine + compound: 1320.00
  Relative ratio of antibody titer to alum (Compound/alum): 1.00

## Cn1cnc2c1c(=O)[nH]c(=O)n2C [Theobromine]
[1]
  Antibody titers in primary screening, Vaccine + compound: 1333.33
[2]
  Antibody titers in secondary screening, Vaccine + compound: 1440

## OC[C@@H](O)[C@H](O)[C@@H](O)CO [Xylitol]
[2]
  Mean value of antibody titers, Only compound: <10
  Mean value of antibody titers, Vaccine + compound: 560.00
  Relative ratio of antibody titer to alum (Compound/alum): 0.35

## [O]=[Zn] [Zinc oxide]
Ebola GP protein
  Mean value of antibody titers, Vaccine + compound: 400.00
  Antibody titer ratio (a): 0.67
  Mean value of antibody titers, Only compound (c): <10

## CC1=C(/C=C/C(C)=C/C=C/C(C)=C/C=C/C=C(C)/C=C/C=C(C)/C=C/C2=C(C)CCCC2(C)C)C(C)(C)CCC1 [β-Carotene]
[1]
  Antibody titers in primary screening, Vaccine + compound: 960.00
[2]
  Antibody titers in secondary screening, Vaccine + compound: 1120

## OC[C@H]1O[C@@H]2O[C@H]3[C@H](O)[C@@H](O)[C@@H](O[C@H]4[C@H](O)[C@@H](O)[C@@H](O[C@H]5[C@H](O)[C@@H](O)[C@@H](O[C@H]6[C@H](O)[C@@H](O)[C@@H](O[C@H]7[C@H](O)[C@@H](O)[C@@H](O[C@H]8[C@H](O)[C@@H](O)[C@@H](O[C@H]1[C@H](O)[C@H]2O)O[C@@H]8CO)O[C@@H]7CO)O[C@@H]6CO)O[C@@H]5CO)O[C@@H]4CO)O[C@@H]3CO [β-Cyclodextrin]
[1]
  Antibody titers in primary screening, Vaccine + compound: 373.33
  Relative ratio of antibody titer to alum (compound/alum), primary screening: 0.22
[2]
  Antibody titers in secondary screening, Vaccine + compound: 1440
  Relative ratio of antibody titer to alum (compound/alum), secondary screening: 0.90
